Experimental data as given in patent US5977298A, “Calcitonin derivatives” (Kvowa Hakko Kogyo Co., Ltd., priority 1995, dated 1999).
Bridges are numbered along the chain shown (N, C = ends). Where no end group is shown, it is not given here. [ ]: non-standard residue; d: D form. Gla = N[C@@H](CC(C(=O)O)C(=O)O)C(=O)O; Hyp = O=C(O)[C@@H]1C[C@@H](O)CN1; βAla = NCCC(=O)O

The substances below were run on Osteoclast-like multinucleated cells (osteoclasts) (assay: Calcitonin-like biological activity: bone resorption pit formation by osteoclasts on ivory pieces). Conditions: compound concentration 10^-6 M, 48 hours.
Format: cell-based, mouse
Description: 1-1 Preparation of Osteoclasts
Osteoclast-like multinucleated cells which were derived by coculturing mouse osteoblasts and bone marrow cells on collagen gel according to the method described in Akatsu T. et al., J. Bone Miner. Res., 7, 1297-1306 (1992) were used as osteoclasts. That is, osteoblasts derived from mouse vault of skull (5×10^5 cells) were put in a 100 mm dish (IWAKI) collagen-coated with Cellmatrix Type I-A (Nitta Gelatin Co., Ltd.) and cultured for one day in a CO2 incubator (37° C., 5% CO2) [medium: αMEM+10% FCS (both by GIBCO Co., Ltd.)]. After the medium was removed, mouse bone marrow cells (6×10^6 cells) were put on the osteoblasts and 10^-8 M calcitriol (Wako Pure Chemical Industries, Ltd.) and 10^-7 M dexamethasone (Sigma Chemical Co.) were added thereto. TRAP-positive multinucleate cells (osteoclast-like cells) which were obtained 7 days after the inoculation of osteoblasts were used as osteoclasts.
1-2 Culturing of Osteoclasts on Ivory Pieces
After removal of the medium from the dish, and rinsing with PBS(-), a mixture of collagenase and dispase (collagenase: Wako Pure Chemical Industries, Ltd., dispase: Godo Shusei Co., Ltd.) was added thereto to suspend the cells. The cell suspension was put into a tube and centrifuged at 800 rpm for 5 minutes. After removal of the supernatant by suction, the cells were suspended again in αMEM and the suspension was put on ivory pieces (diameter: 4 mm, thickness: 20 μm) in 100 μl portions. The ivory pieces were left to stand in a CO2 incubator for 2 hours to attach the osteoclasts thereto, and then taken out and gently transferred to a 48-well plate (IWAKI) to which a medium containing a test compound had been added in advance to determine the bone resorption activity 48 hours later according to the method described below. The medium containing the test compound was prepared by adding the test compound dissolved in HEPES buffer to the medium described in 1-1 to give the final concentrations shown in Tables 2 and 3.
1-3 Determination of Bone Resorption Activity by Staining of Ivory Pieces and Measurement of Bone Resorption Pit Area
The ivory pieces taken out of the medium were put into a tube containing 0.1 N aqueous ammonia and subjected to sonication treatment with a sonicator for 20-30 seconds to remove the osteoclasts. After being washed with distilled water to remove ammonia, the ivory pieces were dipped in a hematoxylin-eosin staining solution to stain resorption pits. The bone resorption pit formation rate was calculated based on microphotographs of stained ivory pieces according to the following equation by the use of an image analyzer. [formula]
The bone resorption inhibitory activity of test compounds were calculated according to the following equation. [formula]
A; Bone resorption pit formation rate obtained using no test compound
B; Bone resorption pit formation rate obtained using a test compound

In order of falling “Bone resorption inhibitory activity (% inhibition)” value:
1. Compound 3: SEQ ID NO:3; cyclic peptide Compound 16 condensed to the N-terminus of the Compound 19 peptide (GNWHGTAPDVLAALAAALAALAALPRTNTGSGTP-NH2; lactam (positions not given here); not fully specified (bridges); printed as ⌐GNWHGTAPDVLAALAAALAALAALPRTNTGSGTP—NH$_2$)  65%
2. Compound 14: SEQ ID NO:14; cyclic peptide Compound 16 condensed to the N-terminus of the Compound 30 peptide (GNWHGTAPDGLGSLTEVLAKLAEYPKTNTGSGTP-NH2; lactam (positions not given here); not fully specified (bridges); printed as ⌐GNWHGTAPDGLGSLTEVLAKLAEYPKTNTGSGTP┐— NH$_2$; also: cyclic peptide Compound 16 condensed at N-terminus)  40%
3. Compound 8: SEQ ID NO:8; cyclic peptide Compound 16 condensed to the N-terminus of the Compound 24 peptide (GNWHGTAPDGLGSLTEVLAKLAAYPRTNT[βAla]SGTP-NH2; lactam (positions not given here); not fully specified (bridges); also: cyclic peptide Compound 16 condensed at N-terminus)  39%
4. Compound 13: SEQ ID NO:13; cyclic peptide Compound 16 condensed to the N-terminus of the Compound 29 peptide (GNWHGTAPDGLGSLTEVLAKLAEYP[dR]TNTGSGTP-NH2; lactam (positions not given here); not fully specified (bridges); printed as ⌐GNWHGTAPDGLGSLTEVLAKLAEYPrTNTGSGTP┐— NH$_2$; also: cyclic peptide Compound 16 condensed at N-terminus)  35%
5. Compound 5: SEQ ID NO:5; cyclic peptide Compound 16 condensed to the N-terminus of the Compound 21 peptide (GNWHGTAPDGLGSLTEVLAKLAAYPRTNTGSGTP-NH2; lactam (positions not given here); not fully specified (bridges); printed as ⌐GNWHGTAPDGLGSLTEVLAKLAAYPRTNTGSGTP—NH$_2$; also: cyclic peptide Compound 16 condensed at N-terminus)  35%
6. Compound 6: SEQ ID NO:6; cyclic peptide Compound 16 condensed to the N-terminus of the Compound 22 peptide (GNWHGTAPDGLGSLTEVLAKLAAYPRSQTGAGTP-NH2; lactam (positions not given here); not fully specified (bridges); printed as ⌐GNWHGTAPDGLGSLTEVLAKLAAYPRSQTGAGTP—NH$_2$; also: cyclic peptide Compound 16 condensed at N-terminus)  29%
7. Compound 4: SEQ ID NO:4; cyclic peptide Compound 16 condensed to the N-terminus of the Compound 20 peptide (GNWHGTAPDMLGTYTQDFNKFHTFPQTAIGVGAP-NH2; lactam (positions not given here); not fully specified (bridges); printed as ⌐GNWHGTAPDMLGTYTQDFNKFHTFPQTAIGVGAP—NH$_2$; also: cyclic peptide Compound 16 condensed at N-terminus)  29%
8. Compound 10: SEQ ID NO:10; cyclic peptide Compound 16 condensed to the N-terminus of the Compound 26 peptide (GNWHGTAPDGLGSLT[Gla]VLAKLAEYPRTNTGSGTP-NH2; lactam (positions not given here); not fully specified (bridges); also: cyclic peptide Compound 16 condensed at N-terminus)  27%
9. H-Val-Leu-Ala-Ala-Leu-Ala-Ala-Ala-Leu-Ala-Ala-Leu-Ala-Ala-Leu-Pro-Arg-Thr-Asn-Thr-Gly-Ser-Gly-Thr-Pro-NH2 (H-VLAALAAALAALAALPRTNTGSGTP-NH2) [Compound 19, linear calcitonin-like peptide, comparison for Compound 3, reference compound]  6%

Same assay, conditions: compound concentration 10^-7 M, 48 hours

In order of falling “Bone resorption inhibitory activity (% inhibition)” value:
1. Compound 1: SEQ ID NO:1; cyclic peptide Compound 15 condensed to the N-terminus of the Compound 17 peptide (GNWHGTAPDWLGKLSQELHKLQTYPRTNTGSGTP-NH2; lactam N-9)  61%
2. Compound 11: SEQ ID NO:11; cyclic peptide Compound 16 condensed to the N-terminus of the Compound 27 peptide (GNWHGTAPDGLGSLTEVLAKLA[Gla]YPRTNTGSGTP-NH2; lactam (positions not given here); not fully specified (bridges); also: cyclic peptide Compound 16 condensed at N-terminus)  42%
3. H-LGKLSQELHKLQTYPRTNTGSGTP-NH2 [Compound 17, reference compound]  0%

Same assay, conditions: compound concentration 10^-8 M, 48 hours

In order of falling “Bone resorption inhibitory activity (% inhibition)” value:
1. Compound 7: SEQ ID NO:7; cyclic peptide Compound 16 condensed to the N-terminus of the Compound 23 peptide (GNWHGTAPDGLGSLTEVLAKLAAY[Hyp]RTNTGSGT[Hyp]-NH2; lactam (positions not given here); not fully specified (bridges); also: cyclic peptide Compound 16 condensed at N-terminus)  50%
2. Compound 2: SEQ ID NO:2; cyclic peptide Compound 16 condensed to the N-terminus of the Compound 18 peptide (GNWHGTAPDVLGKLSQELHKLQTYPRTNTGSGTP-NH2; lactam N-9)  36%
3. H-Val-Leu-Gly-Lys-Leu-Ser-Gln-Glu-Leu-His-Lys-Leu-Gln-Thr-Tyr-Pro-Arg-Thr-Asn-Thr-Gly-Ser-Gly-Thr-Pro-NH2 (H-VLGKLSQELHKLQTYPRTNTGSGTP-NH2) [Compound 18, linear partial calcitonin peptide, comparison for Compound 2, reference compound]  15%
